Test results published in ChEMBL document CHEMBL1201862, “PubChem BioAssay data set” (2004).
Activity calls are given as the source filed them. For most assays here, no stated cut-off is given here; in the data, actives have a measured IC50 and inactives only a lower limit.

Columns and labels:
[1] = target: 26S proteasome non-ATPase regulatory subunit 14 (Homo sapiens, UniProt O00487); experiment: inhibition of proteasome subunit RPN11 – biochemical, fluorescence polarization, uHTS hits, confirmation (AID 602368); format: functional
Prothrombin = Prothrombin (Bos taurus, UniProt P00735); experiment: thrombin inhibition, dose response, biochemical, fluorescence polarization, uHTS hits (AID 602369); format: functional
[2] = target: T1, Apoptotic protease-activating factor 1 (Homo sapiens, UniProt O14727); format: functional
T1 sequence (O14727 whole entry): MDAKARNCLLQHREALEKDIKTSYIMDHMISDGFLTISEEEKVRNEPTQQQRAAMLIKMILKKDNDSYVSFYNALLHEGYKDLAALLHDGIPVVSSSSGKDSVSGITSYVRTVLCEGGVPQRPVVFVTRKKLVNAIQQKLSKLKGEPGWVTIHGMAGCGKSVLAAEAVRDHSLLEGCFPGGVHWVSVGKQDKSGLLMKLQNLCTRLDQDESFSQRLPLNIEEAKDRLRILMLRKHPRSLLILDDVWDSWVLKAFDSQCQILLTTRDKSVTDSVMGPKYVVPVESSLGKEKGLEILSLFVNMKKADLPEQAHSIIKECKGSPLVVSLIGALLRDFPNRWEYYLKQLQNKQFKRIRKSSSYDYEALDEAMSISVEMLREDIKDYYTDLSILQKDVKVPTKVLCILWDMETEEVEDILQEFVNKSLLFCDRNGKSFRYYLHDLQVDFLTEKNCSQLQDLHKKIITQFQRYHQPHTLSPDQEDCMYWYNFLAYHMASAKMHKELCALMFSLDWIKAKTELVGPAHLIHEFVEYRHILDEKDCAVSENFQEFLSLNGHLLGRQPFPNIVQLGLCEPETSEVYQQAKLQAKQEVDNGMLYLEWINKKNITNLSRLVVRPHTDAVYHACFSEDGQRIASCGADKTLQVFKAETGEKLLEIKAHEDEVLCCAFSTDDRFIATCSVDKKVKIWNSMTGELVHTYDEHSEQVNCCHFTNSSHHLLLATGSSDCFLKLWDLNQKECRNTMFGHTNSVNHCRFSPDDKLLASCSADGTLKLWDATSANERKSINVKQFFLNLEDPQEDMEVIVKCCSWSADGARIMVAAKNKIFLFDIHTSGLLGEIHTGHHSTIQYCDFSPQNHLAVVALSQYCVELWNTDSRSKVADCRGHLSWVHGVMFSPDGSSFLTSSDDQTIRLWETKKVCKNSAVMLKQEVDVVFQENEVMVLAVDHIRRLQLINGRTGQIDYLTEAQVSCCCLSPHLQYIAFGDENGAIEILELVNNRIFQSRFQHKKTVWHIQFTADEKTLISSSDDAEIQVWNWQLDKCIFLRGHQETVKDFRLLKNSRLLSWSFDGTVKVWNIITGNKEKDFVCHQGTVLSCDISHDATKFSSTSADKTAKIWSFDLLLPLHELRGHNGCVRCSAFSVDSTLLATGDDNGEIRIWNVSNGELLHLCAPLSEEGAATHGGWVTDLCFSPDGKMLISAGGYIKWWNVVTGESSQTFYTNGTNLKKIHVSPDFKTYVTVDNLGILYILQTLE

[3] = target: T2, Sentrin-specific protease 8 (Homo sapiens, UniProt Q96LD8); format: functional;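 further: luminescence read-out of SENP8 inhibition, dose-response confirmation following an ultra-high-throughput screen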
T2 sequence (Q96LD8 whole entry): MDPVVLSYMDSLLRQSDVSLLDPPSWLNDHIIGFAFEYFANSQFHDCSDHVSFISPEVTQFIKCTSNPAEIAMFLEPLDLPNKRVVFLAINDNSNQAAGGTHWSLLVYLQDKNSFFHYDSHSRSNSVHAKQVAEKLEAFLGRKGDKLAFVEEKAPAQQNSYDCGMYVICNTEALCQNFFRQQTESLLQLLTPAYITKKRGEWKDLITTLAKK

[4] = target: Dual specificity tyrosine-phosphorylation-regulated kinase 1A (Rattus norvegicus, UniProt Q63470); format: biochemical, Homo sapiens
[5] = target: T3, Sentrin-specific protease 7 (Homo sapiens, UniProt Q9BQF6); format: functional;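 further: Luminescence-based dose-response confirmation of ultra-high-throughput screening hits, measuring inhibition of SENP7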
T3 sequence (Q9BQF6 whole entry): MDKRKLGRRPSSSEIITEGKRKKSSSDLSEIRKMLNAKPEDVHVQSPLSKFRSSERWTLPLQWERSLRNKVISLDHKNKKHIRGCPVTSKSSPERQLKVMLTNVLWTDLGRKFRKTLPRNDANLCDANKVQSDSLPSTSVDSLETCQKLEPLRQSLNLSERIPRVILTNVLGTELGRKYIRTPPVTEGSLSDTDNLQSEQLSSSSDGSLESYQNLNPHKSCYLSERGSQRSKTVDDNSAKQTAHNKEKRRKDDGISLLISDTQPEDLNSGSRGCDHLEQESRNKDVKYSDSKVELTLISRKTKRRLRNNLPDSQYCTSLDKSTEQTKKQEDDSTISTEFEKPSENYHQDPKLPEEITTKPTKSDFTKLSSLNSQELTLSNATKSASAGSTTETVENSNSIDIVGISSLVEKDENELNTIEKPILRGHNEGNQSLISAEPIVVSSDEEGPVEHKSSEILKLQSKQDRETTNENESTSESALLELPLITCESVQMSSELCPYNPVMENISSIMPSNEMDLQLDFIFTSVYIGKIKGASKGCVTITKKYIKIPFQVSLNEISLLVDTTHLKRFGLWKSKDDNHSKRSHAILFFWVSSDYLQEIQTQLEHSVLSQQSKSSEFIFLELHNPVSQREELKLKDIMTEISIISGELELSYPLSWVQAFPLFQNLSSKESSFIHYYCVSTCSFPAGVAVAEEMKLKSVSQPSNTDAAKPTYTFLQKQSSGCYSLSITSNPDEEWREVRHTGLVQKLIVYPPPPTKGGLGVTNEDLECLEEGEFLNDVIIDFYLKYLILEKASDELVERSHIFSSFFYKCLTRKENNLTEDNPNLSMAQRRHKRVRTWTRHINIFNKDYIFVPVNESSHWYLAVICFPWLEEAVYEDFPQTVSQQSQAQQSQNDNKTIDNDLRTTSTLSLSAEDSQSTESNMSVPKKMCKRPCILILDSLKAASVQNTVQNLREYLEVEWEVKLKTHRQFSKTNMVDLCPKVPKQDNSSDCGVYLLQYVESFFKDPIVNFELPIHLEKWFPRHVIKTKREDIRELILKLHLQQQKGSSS

Chain of 26S proteasome non-ATPase regulatory subunit 14 (O00487 whole entry): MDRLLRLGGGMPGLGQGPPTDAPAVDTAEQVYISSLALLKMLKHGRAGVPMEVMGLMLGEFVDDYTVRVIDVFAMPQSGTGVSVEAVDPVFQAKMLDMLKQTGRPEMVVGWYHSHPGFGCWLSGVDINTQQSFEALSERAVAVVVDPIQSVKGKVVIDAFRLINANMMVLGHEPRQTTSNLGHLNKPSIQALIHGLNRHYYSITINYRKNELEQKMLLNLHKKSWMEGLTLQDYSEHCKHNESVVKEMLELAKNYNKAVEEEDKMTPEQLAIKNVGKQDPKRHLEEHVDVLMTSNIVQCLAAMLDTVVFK

O=[N+]([O-])c1ccc(N/N=C/c2ccc[nH]2)cc1
active: IC50 [1] 8.96 µM | IC50 (Prothrombin) 9.84 µM

CC(=O)N(/N=C1\Sc2ccccc2C1=O)c1cccc(C)c1
active: IC50 [2] 4.46 µM | IC50 [3] 11.7 µM | AC50 [4] 28.1 µM | IC50 [5] 13.8 µM
